Drawing on patent US20230013602A1, “NOVEL IMIDAZOPYRAZINE DERIVATIVES” (Hoffmann-La Roche Inc., priority 2018, published 2023), this text covers IC90 for 24 molecules.

Where a name gives a salt, the structure may show the parent alone.

The subject of the test is Acinetobacter baumannii ATCC17961. In words: Antimicrobial susceptibility testing, 90% growth inhibitory concentration (IC90) determination. It is filed as cell-based. The note with it: 90% growth inhibitory concentration, Acinetobacter baumannii ATCC17961, Iso-Sensitest broth, OD 600 nm over 16 h; read-out: ATCC17961 IC90. The procedure:
The in vitro antimicrobial activity of the compounds was determined according to the following procedure:
The assay used a 10-points Iso-Sensitest broth medium to measure quantitatively the in vitro activity of the compounds against Acinetobacter baumannii ATCC 17978 and Acinetobacter baumannii ATCC17961.
Stock compounds in DMSO were serially twofold diluted (e.g. range from 50 to 0.097 μM final concentration) in 384 wells microtiter plates and inoculated with 49 μl the bacterial suspension in Iso-Sensitest medium to have a final cell concentration of ˜5×10^(5) CFU/ml in a final volume/well of 50 ul/well. Microtiter plates were incubated at 35+2° C.
Bacterial cell growth was determined with the measurement of optical density at X=600 nm each 20 minutes over a time course of 16 h. Growth inhibition was calculated during the logarithmic growth of the bacterial cells with determination of the concentration inhibiting 50% (IC50) and 90% (IC90) of the growth.
Table 1 provides the 90% growth inhibitory concentrations (IC90) in micromoles per liter of the compounds of present invention obtained against the strain Acinetobacter baumannii ATCC17978 and Acinetobacter baumannii ATCC17961.

Usually IC90 stands for the concentration needed for an effect of 90%. In the case of `CCc1cc(Nc2nccn3c(-c4ccc(OC)c(F)c4F)cnc23)ccc1C(=O)N[C@@H]1C[C@H]1NC(=O)[C@@H]1C[C@@H](O)CN1` (mixture of isomers) [Example 68, (2S,4R)-N-[(1RS, 2RS)-2-[[4-[[3-(2,3-difluoro-4-methoxy-phenyl)imidazo[1,2-a]pyrazin-8-yl]amino]-2-ethyl-benzoyl]amino]cyclopropyl]-4-hydroxy-pyrrolidine-2-carboxamide], the IC90 amounted to 140 nM.
As to `CCc1cc(Nc2nccn3c(-c4ccc(OC)c(F)c4F)cnc23)ccc1C(=O)NC1CCC1NC(=O)[C@@H]1C[C@@H](O)CN1` (mixture of isomers) [Example 69, (2S,4R)-N-(2-(4-((3-(2,3-difluoro-4-methoxyphenyl)imidazo[1,2-a]pyrazin-8-yl)amino)-2-ethylbenzamido)cyclobutyl)-4-hydroxypyrrolidine-2-carboxamide], the IC90 amounted to 246 nM.
Regarding `CCc1cc(Nc2nccn3c(-c4ccc(OC)c(F)c4F)cnc23)ccc1C(=O)NC1CC1NC(=O)[C@@H]1C[C@@H](O)CN1` (mixture of isomers) [Example 73, (2S,4R)-N-[(cis-1SR,2RS)-2-[[4-[[3-(2,3-difluoro-4-methoxy-phenyl)imidazo[1,2-a]pyrazin-8-yI]amino]-2-ethyl-benzoyl]amino]cyclopropyl]-4-hydroxy-pyrrolidine-2-carboxamide], the 90% effect concentration (IC90) is 173 nM.
For `CCc1cc(Nc2nccn3c(-c4ccc(OC)c(F)c4F)cnc23)ccc1C(=O)N[C@H]1CC[C@H](N)C1` (racemic) [Example 43, rac-N-((1R,3 R)-3-aminocyclopentyl)-4-((3-(2,3-difluoro-4-methoxyphenyl)imidazo[1,2-a]pyrazin-8-yl)amino)-2-ethylbenzamide], the IC90 was found to be 211 nM.
Regarding `CCc1cc(Nc2nccn3c(-c4ccc(OC)c(F)c4F)cnc23)ccc1C(=O)NC1CCC(NC(=O)[C@@H](N)CCCNC(=N)N)C1` (mixture of isomers) [Example 46, rac-N-(3-((R)-2-amino-5-guanidinopentanamido)cyclopentyl)-4-((3-(2,3-difluoro-4-methoxyphenyl)imidazo[1,2-a]pyrazin-8-yl)amino)-2-ethylbenzamide bis(2,2,2-trifluoroacetate)], the IC90 was found to be 754 nM.
In the case of `CCc1cc(Nc2nccn3c(-c4ccc(OC)c(F)c4F)cnc23)ccc1C(=O)NC1CCCN(C(=O)[C@@H](N)CCCNC(=N)N)C1` (mixture of isomers) [Example 48, rac-N-(1-(D-arginyl)piperidin-3-yl)-4-((3-(2,3-difluoro-4-methoxyphenyl)imidazo[1,2-a]pyrazin-8-yl)amino)-2-ethylbenzamide bis(2,2,2-trifluoroacetate)] it was 749 nM; in that of `COc1ccc(-c2cnc3c(Nc4ccc(C(=O)N[C@H]5CC[C@H](N)C5)c(C)c4)nccn23)c(F)c1F` (racemic) [Example 54, rac-N-((1R,3R)-3-aminocyclopentyl)-4-((3-(2,3-difluoro-4-methoxyphenyl)imidazo[1,2-a]pyrazin-8-yl)amino)-2-methylbenzamide], 238 nM.
Under `CCc1cc(Nc2nccn3c(-c4ccc(OC)c(F)c4F)cnc23)ccc1C(=O)N[C@@H]1C[C@H]1N` (racemic) [Example 58, rac-N-((1R,2R)-2-aminocyclopropyl)-4-((3-(2,3-difluoro-4-methoxyphenyl)imidazo[1,2-a]pyrazin-8-yl)amino)-2-ethylbenzamide] stands 315 nM; under `COc1ccc(-c2cnc3c(Nc4ccc(C(=O)NC5CCCN(C(=O)[C@@H]6C[C@@H](O)CN6)C5)c(C)c4)nccn23)c(F)c1F` (mixture of isomers) [Example 59, rac-4-((3-(2,3-difluoro-4-methoxyphenyl)imidazo[1,2-a]pyrazin-8-yl)amino)-N-(1-((2R,4S)-4-hydroxypyrrolidine-2-carbonyl)piperidin-3-yl)-2-methylbenzamide], 294 nM; under `CCc1cc(Nc2nccn3c(-c4ccc(OC)c(F)c4F)cnc23)ccc1C(=O)N[C@@H]1C[C@@H]1N` (racemic) [Example 74, rac-N-((1R,2S)-2-aminocyclopropyl)-4-((3-(2,3-difluoro-4-methoxyphenyl)imidazo[1,2-a]pyrazin-8-yl)amino)-2-ethylbenzamide], 201 nM.
In the case of `CCc1cc(Nc2nccn3c(-c4ccc(OC)c(F)c4F)cnc23)ccc1C(=O)NC1CCCNC1` (stereo not drawn) [Example 41, 4-((3-(2,3-difluoro-4-methoxyphenyl)imidazo[1,2-a]pyrazin-8-yl)amino)-2-ethyl-N-(piperidin-3-yl)benzamide] it was 363 nM.
As to `CCc1cc(Nc2nccn3c(-c4ccc(OC)c(F)c4F)cnc23)ccc1C(=O)N[C@H]1CC[C@H](N)CC1` [Example 42, trans-N-((1r,4r)-4-aminocyclohexyl)-4-((3-(2,3-difluoro-4-methoxyphenyl)imidazo[1,2-a]pyrazin-8-yl)amino)-2-ethylbenzamide], the 90% effect concentration (IC90) was determined as 260 nM.
For `CCc1cc(Nc2nccn3c(-c4ccc(OC)c(F)c4F)cnc23)ccc1C(=O)NC1CCN(C(=O)[C@@H](N)CCCNC(=N)N)CC1` [Example 44, N-(1-(L-arginyl)piperidin-4-yl)-4-((3-(2,3-difluoro-4-methoxyphenyl)imidazo[1,2-a]pyrazin-8-yl)amino)-2-ethylbenzamide bis(2,2,2-trifluoroacetate)], the IC90 was 847 nM.
Turning to `CCc1cc(Nc2nccn3c(-c4ccc(OC)c(F)c4F)cnc23)ccc1C(=O)N[C@H]1CC[C@H](NC(=O)[C@@H](N)CCCNC(=N)N)CC1` [Example 45, N-((1S,4r)-4-((S)-2-amino-5-guanidinopentanamido)cyclohexyl)-4-((3-(2,3-difluoro-4-methoxyphenyl)imidazo[1,2-a]pyrazin-8-yl)amino)-2-ethylbenzamide bis(2,2,2-trifluoroacetate)], the IC90 was 559 nM.
For `CCc1cc(Nc2nccn3c(-c4ccc(OC)c(F)c4F)cnc23)ccc1C(=O)N[C@@H]1CCN(C(=O)[C@@H](N)CCCNC(=N)N)C1` [Example 47, N-((R)-1-(L-arginyl)pyrrolidin-3-yl)-4-((3-(2,3-difluoro-4-methoxyphenyl)imidazo[1,2-a]pyrazin-8-yl)amino)-2-ethylbenzamide bis(2,2,2-trifluoroacetate)], the IC90 was determined as 352 nM.
For `CCc1cc(Nc2nccn3c(-c4ccc(OC)c(F)c4F)cnc23)ccc1C(=O)NC1CCCCC1NC(=O)[C@@H]1C[C@@H](O)CN1` (stereo partly drawn) [Example 49, (2S,4R)-N-(2-(4-((3-(2,3-difluoro-4-methoxyphenyl)imidazo[1,2-a]pyrazin-8-yl)amino)-2-ethylbenzamido)cyclohexyl)-4-hydroxypyrrolidine-2-carboxamide dihydrochloride], the IC90 amounted to 274 nM.
In the case of `COc1ccc(-c2cnc3c(Nc4ccc(C(=O)NC5CCNCC5)c(C)c4)nccn23)c(F)c1F` [Example 50, 4-((3-(2,3-difluoro-4-methoxyphenyl)imidazo[1,2-a]pyrazin-8-yl)amino)-2-methyl-N-(piperidin-4-yl)benzamide] it was 319 nM.
Regarding `COc1ccc(-c2cnc3c(Nc4ccc(C(=O)NC5CCCNC5)c(C)c4)nccn23)c(F)c1F` (stereo not drawn) [Example 51, 4-((3-(2,3-difluoro-4-methoxyphenyl)imidazo[1,2-a]pyrazin-8-yl)amino)-2-methyl-N-(piperidin-3-yl)benzamide], the IC90 stood at 324 nM.
In the case of `COc1ccc(-c2cnc3c(Nc4ccc(C(=O)N[C@H]5CC[C@H](N)CC5)c(C)c4)nccn23)c(F)c1F` [Example 52, rac-N-((1r,4r)-4-aminocyclohexyl)-4-((3-(2,3-difluoro-4-methoxyphenyl)imidazo[1,2-a]pyrazin-8-yl)amino)-2-methylbenzamide] it was 243 nM.
In the case of `CCc1cc(Nc2nccn3c(-c4ccc(OC)c(F)c4F)cnc23)ccc1C(=O)N[C@H]1CCC[C@H]1NC(=O)[C@@H]1C[C@@H](O)CN1` [Example 53, (2S,4R)-N-((1R, 2S)-2-(4-((3-(2,3-difluoro-4-methoxyphenyl)imidazo[1,2-a]pyrazin-8-yl)amino)-2-ethylbenzamido)cyclopentyl)-4-hydroxypyrrolidine-2-carboxamide] it was 987 nM; in that of `COc1ccc(-c2cnc3c(Nc4ccc(C(=O)N[C@H]5CCNC5)c(C)c4)nccn23)c(F)c1F` [Example 55, (S)-4-((3-(2,3-difluoro-4-methoxyphenyl)imidazo[1,2-a]pyrazin-8-yl)amino)-2-methyl-N (pyrrolidin-3-yl)benzamide], 236 nM.
Regarding `COc1ccc(-c2cnc3c(Nc4ccc(C(=O)NC5CNC5)c(C)c4)nccn23)c(F)c1F` [Example 56, N-(azetidin-3-yl)-4-((3-(2,3-difluoro-4-methoxyphenyl)imidazo[1,2-a]pyrazin-8-yl)amino)-2-methylbenzamide], the IC90 amounted to 279 nM.
Take `COc1ccc(-c2cnc3c(Nc4ccc(C(=O)N[C@H]5C[C@H](N)C5)c(C)c4)nccn23)c(F)c1F` [Example 57, rac-N-((1r,3r)-3-aminocyclobutyl)-4-((3-(2,3-difluoro-4-methoxyphenyl)imidazo[1,2-a]pyrazin-8-yl)amino)-2-methylbenzamide]: the IC90 was 247 nM.
Consider `COc1ccc(-c2cnc3c(Nc4ccc(C(=O)N[C@H]5CC[C@@H](NC(=O)C(C)C)CC5)c(C)c4)nccn23)c(F)c1F` [Example 60, rac-4-((3-(2,3-dif!uoro-4-methoxyphenyl)imidazo[1,2-a]pyrazin-8-yl)amino)-N-((1s,4s)-4-isobutyramidocyclohexyl)-2-methylbenzamide], for which the IC90 was determined as 189 nM.
